Where “and” joins values, the source holds several entries; their conditions need not be identical. Equal entries are not always repeated. Structures can show the parent of a compound that is named as a salt. Square brackets hold non-standard residues; d marks the D form. Peptide text beside a SMILES is read from it. Nle = CCCC[C@H](N)C(=O)O
Legend:
[1] = test system: SARS-CoV-2 (USA-WA1/2020 isolate); type: cell-based
[2] = test system: MLV reporter luciferase virus pseudotyped with the SARS-CoV-2 Spike protein (SARS2-S)
[3] = test system: SARS-CoV-2; type: cell-based
[4] = test system: SARS2-S; assay: microbe, parasite or virus in culture; type: cell-based, SARS-CoV-2; conditions: Severe acute respiratory syndrome coronavirus 2, read-out: SARS2-S IC50
[5] = test system: VSV-G; assay: microbe, parasite or virus in culture; type: cell-based; conditions: Vesicular stomatitis virus, read-out: VSV-G IC50
[6] = test system: SARS1-S; assay: microbe, parasite or virus in culture; type: cell-based, SARS-CoV-1
[7] = test system: SARS2-S WT; assay: microbe, parasite or virus in culture; type: cell-based, SARS-CoV-2; conditions: Severe acute respiratory syndrome coronavirus 2, read-out: WT IC50
[8] = test system: main viral protease (MPRO); conditions: read-out: MPRO IC50; cited from earlier work

SMILES | activity against wild type SARS-CoV-2 (CPE) [1] | higher potency as compared to the best ReFRAME hit, SR-806 (VBY-825) [2] [fold] | higher specificity as compared to the best ReFRAME hit, SR-806 (VBY-825) [2] | therapeutic index (TI=CC50/IC50) [2] | EC50 ([1]; read-out: EC50, SARS-CoV-2-induced CPE assay) | activity in plaque assays of wild type SARS-CoV-2 infection [3] | IC50 [4] [nM] | IC50 [5] [nM] | less potent against SARS1-S than against SARS2-S [6] [fold] | IC50 ([6]; Severe acute respiratory syndrome coronavirus, read-out: SARS1-S IC50) [nM] | IC50 [7] [nM] | IC50 [8] [nM]
CN(C)C(=O)COC(=O)Cc1ccc(OC(=O)c2ccc(NC(=N)N)cc2)cc1 [Camostat mesylate, reference compound] | did not shown any activity |  |  |  |  |  |  |  |  |  |  | 
CCCC[C@@H](C=O)NC(=O)[C@H](CC(C)C)NC(=O)[C@H](CC(C)C)NC(C)=O [SR-372, calpain inhibitor I] (Ac-Leu-Leu-[Nle]-aldehyde) |  | 3.5 | > 3 fold | greater than 100 |  |  |  |  |  |  |  | 
CCCC[C@@H](C=O)NC(=O)[C@H](CC(C)C)NC(=O)OCc1ccccc1 [SR-914, calpeptin] |  | 7.1 | higher than 7.1 fold | greater than 100 | 174 nM and 163 nM | further confirmed | 10.9 ± 0.78 | > 20000 | ~8 | 77.2 ± 4.69 | 3.78 | 10400

From publication PMC8577999 (Slas Discovery, 2021)
